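48-hour exposure; five concentrations; linearly interpolated endpoints. GI50 = concentration required for 50% inhibition of growth.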 Calls of active or inactive are those of the source. Cut-off read from the data, not from the text of the source: active = GI50 up to about 1.1 µM and inactive = higher.
Tests used:
Test in all cases: NCI tumour cell line growth inhibition, 48 h
CCRF-CEM = tested on: CCRF-CEM
SK-MEL-28 = tested on: SK-MEL-28
RXF 393 = tested on: RXF 393
OVCAR-4 = tested on: OVCAR-4
SF-295 = tested on: SF-295
786-0 = tested on: 786-0
KM12 = tested on: KM12
DU-145 = tested on: DU-145
SF-268 = tested on: SF-268
SNB-19 = tested on: SNB-19
HCT-15 = tested on: HCT-15
UACC-62 = tested on: UACC-62
TK-10 = tested on: TK-10
CAKI-1 = tested on: CAKI-1
ACHN = tested on: ACHN
EKVX = tested on: EKVX
A549 = tested on: A549
SK-MEL-2 = tested on: SK-MEL-2
HT-29 = tested on: HT-29
UACC-257 = tested on: UACC-257
A498 = tested on: A498
SK-OV-3 = tested on: SK-OV-3
BT-549 = tested on: BT-549
MDA-N = tested on: MDA-N
U-251 = tested on: U-251
HOP-62 = tested on: HOP-62
OVCAR-3 = tested on: OVCAR-3
SR = tested on: SR
IGROV-1 = tested on: IGROV-1
PC-3 = tested on: PC-3
COLO 205 = tested on: COLO 205
Hs-578T = tested on: Hs-578T
M14 = tested on: M14
NCI-H226 = tested on: NCI-H226
MOLT-4 = tested on: MOLT-4
UO-31 = tested on: UO-31
NCI-H460 = tested on: NCI-H460
OVCAR-8 = tested on: OVCAR-8
Malme-3M = tested on: Malme-3M
T47D = tested on: T47D
HCT-116 = tested on: HCT-116
RPMI-8226 = tested on: RPMI-8226
MDA-MB-435 = tested on: MDA-MB-435
LOX IMVI = tested on: LOX IMVI
K562 = tested on: K562
NCI-H522 = tested on: NCI-H522
NCI/ADR-RES = tested on: NCI/ADR-RES
NCI-H23 = tested on: NCI-H23
SK-MEL-5 = tested on: SK-MEL-5
HCC 2998 = tested on: HCC 2998
MCF7 = tested on: MCF7
HL-60 = tested on: HL-60
SW-620 = tested on: SW-620
SN12C = tested on: SN12C
SF-539 = tested on: SF-539
OVCAR-5 = tested on: OVCAR-5
MDA-MB-231 = tested on: MDA-MB-231
SNB-75 = tested on: SNB-75
HOP-92 = tested on: HOP-92

With `CC12Cc3cc4c(cc3C1(c1ccc([N+](=O)[O-])cc1)OCCO2)OCO4` (stereo not given) the GI50 (CCRF-CEM) was > 100 µM (inactive), the GI50 (SK-MEL-28) was > 100 µM (inactive) and the GI50 (RXF 393) was 16.4 µM (inactive). For the same compound, the GI50 (OVCAR-4) was > 100 µM (inactive), the GI50 (SF-295) was 25.2 µM (inactive) and the GI50 (786-0) was 47.9 µM (inactive). For the same compound, the GI50 (KM12) was > 100 µM (inactive), the GI50 (DU-145) was 87.1 µM (inactive) and the GI50 (SF-268) was 22.8 µM (inactive). For the same compound, the GI50 (SNB-19) was 28.6 µM (inactive), the GI50 (HCT-15) was 44.2 µM and the GI50 (UACC-62) was 36.8 µM (inactive). For the same compound, the GI50 (TK-10) was 37.8 µM (inactive), the GI50 (CAKI-1) was > 100 µM (inactive) and the GI50 (ACHN) was 28 µM (inactive). For the same compound, the GI50 (EKVX) was 37.2 µM (inactive), the GI50 (A549) was > 100 µM (inactive) and the GI50 (SK-MEL-2) was 32.2 µM (inactive). For the same compound, the GI50 (HT-29) was > 100 µM (inactive), the GI50 (UACC-257) was > 100 µM (inactive) and the GI50 (A498) was > 100 µM (inactive). For the same compound, the GI50 (SK-OV-3) was 16.8 µM (inactive), the GI50 (BT-549) was 25.5 µM (inactive) and the GI50 (MDA-N) was > 100 µM (inactive). The GI50 (U-251) was 26.9 µM (inactive), the GI50 (HOP-62) was 18.1 µM (inactive) and the GI50 (OVCAR-3) was > 100 µM (inactive). The GI50 (SR) was > 100 µM (inactive), the GI50 (IGROV-1) was 23.1 µM (inactive) and the GI50 (PC-3) was 97.7 µM (inactive). For the same compound, the GI50 (COLO 205) was > 100 µM (inactive), the GI50 (Hs-578T) was 25.5 µM (inactive) and the GI50 (M14) was > 100 µM (inactive). For the same compound, the GI50 (NCI-H226) was 26.2 µM (inactive), the GI50 (MOLT-4) was > 100 µM (inactive) and the GI50 (UO-31) was > 100 µM (inactive). The GI50 (NCI-H460) was 70.3 µM (inactive), the GI50 (OVCAR-8) was 22.4 µM (inactive) and the GI50 (Malme-3M) was > 100 µM (inactive). For the same compound, the GI50 (T47D) was > 100 µM (inactive), the GI50 (HCT-116) was 65.3 µM (inactive) and the GI50 (RPMI-8226) was > 100 µM (inactive). The GI50 (MDA-MB-435) was > 100 µM (inactive), the GI50 (LOX IMVI) was > 100 µM (inactive) and the GI50 (K562) was > 100 µM (inactive). For the same compound, the GI50 (NCI-H522) was 91 µM (inactive), the GI50 (NCI/ADR-RES) was 95.5 µM (inactive) and the GI50 (NCI-H23) was 42.9 µM (inactive). The GI50 (SK-MEL-5) was > 100 µM (inactive), the GI50 (HCC 2998) was > 100 µM (inactive) and the GI50 (MCF7) was 76.7 µM (inactive). The GI50 (HL-60) was > 100 µM (inactive), the GI50 (SW-620) was > 100 µM (inactive) and the GI50 (SN12C) was 55.6 µM (inactive). For the same compound, the GI50 (SF-539) was 28 µM (inactive), the GI50 (OVCAR-5) was > 100 µM (inactive) and the GI50 (MDA-MB-231) was 14.9 µM (inactive).
For `c1ccc(C[N+]23CN4CN(CN(C4)C2)C3)cc1`, the GI50 (CCRF-CEM) was 11.7 µM (inactive), the GI50 (SK-MEL-28) was 26.7 µM (inactive) and the GI50 (RXF 393) was 18 µM (inactive). For the same compound, the GI50 (OVCAR-4) was 36.5 µM (inactive), the GI50 (SF-295) was > 100 µM (inactive) and the GI50 (786-0) was 21.1 µM (inactive). For the same compound, the GI50 (KM12) was 33.2 µM (inactive), the GI50 (DU-145) was 27.5 µM (inactive) and the GI50 (SF-268) was 29.3 µM (inactive). For the same compound, the GI50 (SNB-19) was 26.4 µM (inactive), the GI50 (HCT-15) was 31.4 µM and the GI50 (UACC-62) was 17.3 µM (inactive). The GI50 (TK-10) was 84.5 µM (inactive), the GI50 (CAKI-1) was 45.9 µM (inactive) and the GI50 (ACHN) was 29.3 µM (inactive). The GI50 (EKVX) was > 100 µM (inactive), the GI50 (A549) was 29.2 µM (inactive) and the GI50 (SK-MEL-2) was 17 µM (inactive). The GI50 (HT-29) was 33.2 µM (inactive), the GI50 (UACC-257) was 37.4 µM (inactive) and the GI50 (A498) was > 100 µM (inactive). For the same compound, the GI50 (SK-OV-3) was > 100 µM (inactive), the GI50 (BT-549) was 48.2 µM (inactive) and the GI50 (MDA-N) was 94.4 µM (inactive). The GI50 (U-251) was 18.4 µM (inactive), the GI50 (HOP-62) was 69.2 µM (inactive) and the GI50 (OVCAR-3) was > 100 µM (inactive). For the same compound, the GI50 (IGROV-1) was 52.2 µM (inactive), the GI50 (PC-3) was 17 µM (inactive) and the GI50 (COLO 205) was 18.5 µM (inactive). The GI50 (Hs-578T) was > 100 µM (inactive), the GI50 (M14) was 19.7 µM (inactive) and the GI50 (NCI-H226) was > 100 µM (inactive). The GI50 (MOLT-4) was 22.7 µM (inactive), the GI50 (SNB-75) was 45.6 µM (inactive) and the GI50 (UO-31) was 20.8 µM (inactive). The GI50 (NCI-H460) was 38.2 µM (inactive), the GI50 (OVCAR-8) was 30.1 µM (inactive) and the GI50 (Malme-3M) was 57.7 µM (inactive). The GI50 (T47D) was 28.4 µM (inactive), the GI50 (HCT-116) was 27.7 µM (inactive) and the GI50 (HOP-92) was 36.1 µM (inactive). The GI50 (RPMI-8226) was 22.5 µM (inactive), the GI50 (MDA-MB-435) was 22 µM (inactive) and the GI50 (LOX IMVI) was 22 µM (inactive). For the same compound, the GI50 (K562) was 29.7 µM (inactive), the GI50 (NCI-H522) was > 100 µM (inactive) and the GI50 (NCI/ADR-RES) was 78.5 µM (inactive). For the same compound, the GI50 (NCI-H23) was 19.1 µM (inactive), the GI50 (SK-MEL-5) was 23.9 µM (inactive) and the GI50 (HCC 2998) was 20.4 µM (inactive). The GI50 (MCF7) was 30.1 µM (inactive), the GI50 (HL-60) was 24.1 µM (inactive) and the GI50 (SW-620) was 24.1 µM (inactive). For the same compound, the GI50 (SN12C) was 53.2 µM (inactive), the GI50 (SF-539) was 28.6 µM (inactive) and the GI50 (OVCAR-5) was > 100 µM (inactive). For the same compound, the GI50 (MDA-MB-231) was 20.1 µM (inactive).
